Assay results published in patent US20110237606A1, “3-Deazaneplanocin Derivatives” (AGENCY OF SCIENCE, TECHNOLOGY AND RESEARCH, priority 2008, published 2011).
Counter-ions that a name gives are not always drawn.

Assays:
[1] = tested on: HCT115 ER-E2F1 cells; assay: E2F1-induced apoptosis assay (ER-E2F1 activated by 4-OHT), FACS subG1; format: cell-based; settings: for E2F1 Induced apoptosis % Apoptosis: without 4-OHT (value before the parentheses), 'No activity'; for E2F1 Induced apoptosis (+4-OHT) % Apoptosis: with 4-OHT (value in parentheses)
Excerpt: Two assays were used to measure the compound's activity in induce apoptosis. The first assay measures the activity of compound to activate E2F1-induced apoptosis. In this assay, transcription factor E2F1 was engineered with ER receptor ligand binding domain. Addition of 4-OHT will be able to activate ER-E2F1 complex activity.
Fluorescence activated cell sorting (FACS) also known as flow cytometry is the technique used to determine apoptosis in this set of experiments. Apoptosis is indicated by cell populations with DNA content in the subG1 range. To determine the activity of these compounds, the inventors used HCT115 ER-E2F1 cells to determine the activity of the compound in inducing E2F1-dependent apoptosis. In this assay, addition of 4-OHT ligand will activate E2F1. DZNep has been show previously to activate OHT-induced apoptosis in this system.

[2] = tested on: colon cancer cells; assay: Apoptosis induction in combination with histone deacetylase inhibitor TSA; format: cell-based; settings: 48 h
Excerpt: The compound may show activity to activate E2F1-induced apoptosis of at least about 15%, or at least about 20 or 25%, or about 15 to 25%, 15 to 30%, 15 to 20% or 20 to 25%. In this context, transcription factor E2F1, which is involved in the action of tumour suppressing proteins, was engineered with ER receptor ligand binding domain. (ER receptor is a nuclear hormone type of intracellular oestrogen receptor.) The compound may show activity to activate E2F1-induced apoptosis in the presence of 4-OHT of at least about 25% or of at least about 30, 40, 50, 60, 70 or 80%, or of about 25 to about 80%, or about 30 to 80, 50 to 80, 60 to 80 or 50 to 70%, e.g. about 25, 30, 35, 40, 45, 50, 55, 60, 65, 70, 75, 80 or 85%. 4-OHT is 4-hydroxytamoxifen, an anti-estrogenic metabolite of tamoxifen with a much higher affinity for oestrogen receptors than tamoxifen itself. The compound may show apoptosis induction in colon cancer cells with histone deacetylase inhibitor TSA (Trichostatin A) of at least about 40%, or at least about 50, 60, 70 or 80%, or about 40 to about 90%, or about 50 to 90, 70 to 90, 40 to 60 or 50 to 80%, e.g. about 40, 50, 60, 70, 80 or 90%. It may be capable of inhibiting the function of Polycomb repressive complex 2 (PRC2) proteins. In this context, activity % refers to the percentage of cell undergoing apoptosis (death) under the combination drug treatment of DZNep analogue with TSA for 48 h.
The second assay was designed to measure synergistic effect of new compounds with histone deacetylase inhibitor TSA for apoptosis induction in colon cancer cells. DZNep is known to synergy with TSA to induce strong apoptosis in colon cancer cells ((Jiang et al., Cancer Cell, 13, 529-541, 2008). Again the new compounds are compared with DZNep in the context of inducing apoptosis with TSA. Assays were conducted in accordance with Jiang et al (above).

Structure (SMILES)	E2F1 Induced apoptosis % Apoptosis [1]	Combination with HDAC inhibitor TSA % Apoptosis [2]	E2F1 Induced apoptosis (+4-OHT) % Apoptosis [1] [%]
Nc1ncnc2c1ncn2C1C=CCC1 (racemic) [Compound 29, (±)-9-(cyclopent-2-enyl)-9H-purin-6-amine]	No activity	No activity	–
OCC1=C[C@@H](n2cnc3c(Cl)nccc32)[C@H](O)[C@@H]1O [Compound 3]	No activity	No activity	–
COC(=O)c1cn([C@@H]2C=C(CO)[C@@H](O)[C@H]2O)cn1 [Compound 6]	No activity	No activity	–
OCC1=C[C@@H](n2cnc3ccnc(Cl)c32)[C@H](O)[C@@H]1O [Compound 4]	No activity	No activity	–
COC(=O)c1cn([C@@H]2C=C(COC(c3ccccc3)(c3ccccc3)c3ccccc3)[C@H]3OC(C)(C)O[C@H]32)cn1 [Compound 17]	No activity	No activity	–
CC1(C)O[C@@H]2[C@H](O1)C(CO)=C[C@H]2n1cnc2c(N)nccc21 [Compound 23, 2′,3′-O-Isopropylidene-3-deazaneplanocin A]	–	No activity	25
Nc1ncnc2c1ncn2[C@@H]1CC[C@H](O)[C@@H]1O (racemic) [Compound 33, (±)-(1R,2S,3S)-3-(6-Amino-9H-purin-9-yl)-1,2-cyclopentanediol hydrochloride]	No activity	No activity	–
Nc1ncnc2c1ncn2[C@@H]1C=C(COC(=O)c2ccccc2)[C@@H](O)[C@H]1O [Compound 27, ((3R,4S,5R)-3-(6-amino-9H-purin-9-yl)-4,5-dihydroxycyclopent-1-enyl)methyl benzoate hydrochloride]	–	–	30
CC1(C)O[C@H]2[C@H](CC[C@H]2n2cnc3c(N)ncnc32)O1 (racemic) [Compound 31, (±)-9-(2,2-dimethyl-tetrahydro-3aH-cyclopenta[d][1,3]dioxol-4-yl)-9H-purin-6-amine]	No activity	No activity	–
CC1(C)O[C@@H]2[C@H](O1)C(CO)=C[C@H]2n1cnc2c(N)ncnc21 [Compound 28]	No activity	No activity	–
COC(=O)c1cn([C@@H]2C=C(CO)[C@@H](O)[C@H]2O)nn1 [Compound 5]	No activity	No activity	–
O=c1ccn([C@@H]2C=C(CO)[C@@H](O)[C@H]2O)c(=O)[nH]1 [Compound 12]	No activity	No activity	–
NC(=O)c1ncn([C@@H]2C=C(CO)[C@@H](O)[C@H]2O)n1 [Compound 13]	No activity	No activity	–
Nc1ncnc2c1ncn2[C@@H]1CC[C@@H](O)[C@H]1O (racemic) [Compound 32, (±)-(1R,2S,3R)-3-(6-Amino-9H-purin-9-yl)-1,2-cyclopentanediol hydrochloride]	–	–	44
CC1(C)O[C@@H]2[C@H](O1)C(COC(c1ccccc1)(c1ccccc1)c1ccccc1)=C[C@H]2n1cnc2c(Cl)nccc21 [Compound 1]	No activity	–	–
O=c1[nH]cnc2c1ncn2[C@@H]1C=C(CO)[C@@H](O)[C@H]1O [Compound 11]	No activity	No activity	–

Structure (SMILES)	E2F1 Induced apoptosis % Apoptosis [1]	Combination with HDAC inhibitor TSA % Apoptosis [2]	E2F1 Induced apoptosis (+4-OHT) % Apoptosis [1] [%]
CC1(C)O[C@@H]2[C@H](O1)C(COC(c1ccccc1)(c1ccccc1)c1ccccc1)=C[C@H]2n1cnc2c(Cl)ncnc21 [Compound 20]	No activity	No activity	–
O=C(c1ccccc1)n1c(=O)ccn([C@@H]2C=C(CO)[C@@H](O)[C@H]2O)c1=O [Compound 8]	No activity	No activity	–
Cc1cn([C@@H]2C=C(CO)[C@@H](O)[C@H]2O)c(=O)n(C(=O)c2ccccc2)c1=O [Compound 9]	No activity	No activity	–
CC1=C[C@@H](n2cnc3c(N)ncnc32)[C@H](O)[C@@H]1O [Compound 26, (1S,2R,5R)-5-(6-amino-9H-purin-9-yl)-3-methylcyclopent-3-ene-1,2-diol hydrochloride]	–	–	40
Nc1nccc2c1ncn2[C@@H]1C=C(CO)[C@@H](O)[C@H]1O [Compound 22, 3-Deazaneplanocin A, reference compound]	–	–	65
NC(=O)c1cn([C@@H]2C=C(CO)[C@@H](O)[C@H]2O)cn1 [Compound 14]	No activity	No activity	–
Cl.Nc1nccc2c1ncn2[C@@H]1C[C@H](CO)[C@@H](O)[C@H]1O [Compound 24, 3-Deazaaristeromycin hydrochloride]	28%	70%	60
CC1(C)O[C@@H]2[C@H](O1)C(COC(c1ccccc1)(c1ccccc1)c1ccccc1)=C[C@@H]2O [Compound 15]	No activity	No activity	–
CC1(C)O[C@@H]2[C@H](O1)C(COC(c1ccccc1)(c1ccccc1)c1ccccc1)=C[C@H]2n1cnc2c(N)ncnc21 [Compound 16]	No activity	No activity	–
COC(=O)c1ncn([C@@H]2C=C(CO)[C@@H](O)[C@H]2O)n1 [Compound 7]	No activity	No activity	–
Cc1cn([C@@H]2C=C(COC(c3ccccc3)(c3ccccc3)c3ccccc3)[C@H]3OC(C)(C)O[C@H]32)c(=O)n(C(=O)c2ccccc2)c1=O [Compound 18]	No activity	No activity	–
CC1(C)O[C@H]2[C@H](n3cnc4c(N)ncnc43)CC[C@H]2O1 (racemic) [Compound 30, (±)-9-(2,2-dimethyl-tetrahydro-3aH-cyclopenta[d][1,3]dioxol-4-yl)-9H-purin-6-amine]	No activity	No activity	–
CC1(C)O[C@@H]2[C@H](O1)C(COC(c1ccccc1)(c1ccccc1)c1ccccc1)=C[C@H]2n1cnc2cncc(Cl)c21 [Compound 2]	No activity	–	–
Cc1cn([C@@H]2C=C(CO)[C@@H](O)[C@H]2O)c(=O)[nH]c1=O [Compound 10]	No activity	No activity	–
CC1(C)O[C@@H]2[C@H](O1)C(COC(c1ccccc1)(c1ccccc1)c1ccccc1)=C[C@H]2n1ccc(=O)n(C(=O)c2ccccc2)c1=O [Compound 19]	No activity	No activity	–
